Measured values from ChEMBL document CHEMBL5058648, “Data for DCP probe SAFit2” (2022).

Key:
[1] = target: T1, Sigma intracellular receptor 2 (Homo sapiens, UniProt Q5BJF2); settings: Compound concentration 10.0 uM
[2] = target: Beta-3 adrenergic receptor (Homo sapiens) (UniProt P13945); settings: Compound concentration 10.0 uM
[3] = target: T2, Sodium-dependent noradrenaline transporter (Homo sapiens, UniProt P23975); test: GPCRScan assay: inhibition of NET; design: radioligand conc. used [nm] 1.3 – 5.0, parental cells stable HEK
[4] = target: Alpha-2A adrenergic receptor (Homo sapiens) (UniProt P08913); settings: Compound concentration 10.0 uM
[5] = target: D(4) dopamine receptor (Homo sapiens) (UniProt P21917); settings: Compound concentration 10.0 uM
[6] = target: Sodium-dependent serotonin transporter (Homo sapiens) (UniProt P31645); settings: Compound concentration 10.0 uM
[7] = target: 5-hydroxytryptamine receptor 7 (Homo sapiens) (UniProt P34969); settings: Compound concentration 10.0 uM
[8] = target: Alpha-2C adrenergic receptor (Homo sapiens) (UniProt P18825); settings: Compound concentration 10.0 uM
[9] = target: 5-hydroxytryptamine receptor 1B (Homo sapiens) (UniProt P28222); settings: Compound concentration 10.0 uM
[10] = target: T3, Sodium-dependent dopamine transporter (Homo sapiens, UniProt Q01959); settings: Compound concentration 10.0 uM
[11] = target: Beta-1 adrenergic receptor (Homo sapiens) (UniProt P08588); settings: Compound concentration 10.0 uM
[12] = target: T2, Sodium-dependent noradrenaline transporter; settings: Compound concentration 10.0 uM
[13] = target: Mu-type opioid receptor (Homo sapiens) (UniProt P35372); settings: Compound concentration 10.0 uM
[14] = target: 5-hydroxytryptamine receptor 5A (Homo sapiens) (UniProt P47898); settings: Compound concentration 10.0 uM
[15] = target: T4, Sigma non-opioid intracellular receptor 1 (Homo sapiens, UniProt Q99720); settings: Compound concentration 10.0 uM
[16] = target: T4, Sigma non-opioid intracellular receptor 1; test: GPCRScan assay: inhibition of Sigma 1; design: radioligand conc. used [nm] 4.0 – 5.0, parental cells HEKT
[17] = target: Muscarinic acetylcholine receptor M5 (Homo sapiens) (UniProt P08912); settings: Compound concentration 10.0 uM
[18] = target: Alpha-1B adrenergic receptor (Homo sapiens) (UniProt P35368); settings: Compound concentration 10.0 uM
[19] = target: 5-hydroxytryptamine receptor 1E (Homo sapiens) (UniProt P28566); settings: Compound concentration 10.0 uM
Histamine H2 receptor [20] = target: T5, Histamine H2 receptor (Homo sapiens, UniProt P25021); test: GPCRScan assay: inhibition of H2; design: radioligand conc. used [nm] 0.02 – 0.05, parental cells Stable HEK
[21] = target: Histamine H3 receptor (Homo sapiens) (UniProt Q9Y5N1); settings: Compound concentration 10.0 uM
[22] = target: T3, Sodium-dependent dopamine transporter; test: GPCRScan assay: inhibition of DAT; design: radioligand conc. used [nm] 3.6 – 16.0, parental cells stable HEK
[23] = target: 5-hydroxytryptamine receptor 3A (Homo sapiens) (UniProt P46098); settings: Compound concentration 10.0 uM
[24] = target: Histamine H1 receptor (Homo sapiens) (UniProt P35367); settings: Compound concentration 10.0 uM
D(2) dopamine receptor [25] = target: T6, D(2) dopamine receptor (Homo sapiens, UniProt P14416); settings: Compound concentration 10.0 uM
[26] = target: 5-hydroxytryptamine receptor 2A (Homo sapiens) (UniProt P28223); settings: Compound concentration 10.0 uM
[27] = target: Muscarinic acetylcholine receptor M1 (Homo sapiens) (UniProt P11229); settings: Compound concentration 10.0 uM
[28] = target: Muscarinic acetylcholine receptor M4 (Homo sapiens) (UniProt P08173); settings: Compound concentration 10.0 uM
[29] = target: 5-hydroxytryptamine receptor 1A (Homo sapiens) (UniProt P08908); settings: Compound concentration 10.0 uM
[30] = target: T7, 5-hydroxytryptamine receptor 1D (Homo sapiens, UniProt P28221); test: GPCRScan assay: inhibition of 5-HT1D; design: radioligand conc. used [nm] 1.0 – 2.0, parental cells HEKT
[31] = target: Alpha-2B adrenergic receptor (Homo sapiens) (UniProt P18089); settings: Compound concentration 10.0 uM
[32] = target: Delta-type opioid receptor (Homo sapiens) (UniProt P41143); settings: Compound concentration 10.0 uM
Histamine H2 receptor [33] = target: T5, Histamine H2 receptor; settings: Compound concentration 10.0 uM
[34] = target: T1, Sigma intracellular receptor 2; test: GPCRScan assay: inhibition of Sigma 2; design: radioligand conc. used [nm] 5.0, parental cells HEKT
[35] = target: D(1B) dopamine receptor (Homo sapiens) (UniProt P21918); settings: Compound concentration 10.0 uM
[36] = target: T8, GABA-A receptor; anion channel (Rattus norvegicus) (UniProt O09028+P15431+P18506+P18508+P19969+P20236+P23574+P23576+P28471+P28473+P30191+P62813+P63079+P63138+Q91ZM7+Q9ES14); settings: Compound concentration 10.0 uM
[37] = target: Kappa-type opioid receptor (Homo sapiens) (UniProt P41145); settings: Compound concentration 10.0 uM
[38] = target: 5-hydroxytryptamine receptor 2B (Homo sapiens) (UniProt P41595); settings: Compound concentration 10.0 uM
[39] = target: T7, 5-hydroxytryptamine receptor 1D; settings: Compound concentration 10.0 uM
[40] = target: D(3) dopamine receptor (Homo sapiens) (UniProt P35462); settings: Compound concentration 10.0 uM
Histamine H4 receptor [41] = target: T9, Histamine H4 receptor (Homo sapiens, UniProt Q9H3N8); settings: Compound concentration 10.0 uM
[42] = target: Muscarinic acetylcholine receptor M3 (Homo sapiens) (UniProt P20309); settings: Compound concentration 10.0 uM
[43] = target: D(1A) dopamine receptor (Homo sapiens) (UniProt P21728); settings: Compound concentration 10.0 uM
[44] = target: Beta-2 adrenergic receptor (Homo sapiens) (UniProt P07550); settings: Compound concentration 10.0 uM
[45] = target: Peptidyl-prolyl cis-trans isomerase FKBP4 (Homo sapiens, UniProt Q02790); test: Competitive fluorescence polarization binding assay (FKBP4)
D(2) dopamine receptor [46] = target: T6, D(2) dopamine receptor; test: GPCRScan assay: inhibition of D2; design: radioligand conc. used [nm] 0.4 – 1.0, parental cells stable fibroblast
[47] = target: Peptidyl-prolyl cis-trans isomerase FKBP3 (Homo sapiens, UniProt Q00688); test: Competitive fluorescence polarization binding assay (FKBP3)
Histamine H4 receptor [48] = target: T9, Histamine H4 receptor; test: GPCRScan assay: inhibition of H4; design: radioligand conc. used [nm] 1.0 – 5.0, parental cells HEK T
[49] = target: Muscarinic acetylcholine receptor M2 (Homo sapiens) (UniProt P08172); settings: Compound concentration 10.0 uM
[50] = target: 5-hydroxytryptamine receptor 2C (Homo sapiens, UniProt P28335); test: GPCRScan assay: inhibition of 5-HT2C; design: radioligand conc. used [nm] 1.0 – 2.5, parental cells HEK T
[51] = target: Peptidyl-prolyl cis-trans isomerase FKBP2 (Homo sapiens, UniProt P26885); test: Competitive fluorescence polarization binding assay (FKBP2)
[52] = target: 5-hydroxytryptamine receptor 2C (Homo sapiens) (UniProt P28335); settings: Compound concentration 10.0 uM
[53] = target: 5-hydroxytryptamine receptor 6 (Homo sapiens) (UniProt P50406); settings: Compound concentration 10.0 uM
[54] = target: T8, GABA-A receptor; anion channel (Rattus norvegicus); settings: Compound concentration 10.0 uM; remark: listed apart in the source
[55] = target: Alpha-1A adrenergic receptor (Homo sapiens) (UniProt P35348); settings: Compound concentration 10.0 uM
Rattus norvegicus = species: Rattus norvegicus; settings: Compound concentration 10.0 uM

T3 sequence (Q01959 whole entry): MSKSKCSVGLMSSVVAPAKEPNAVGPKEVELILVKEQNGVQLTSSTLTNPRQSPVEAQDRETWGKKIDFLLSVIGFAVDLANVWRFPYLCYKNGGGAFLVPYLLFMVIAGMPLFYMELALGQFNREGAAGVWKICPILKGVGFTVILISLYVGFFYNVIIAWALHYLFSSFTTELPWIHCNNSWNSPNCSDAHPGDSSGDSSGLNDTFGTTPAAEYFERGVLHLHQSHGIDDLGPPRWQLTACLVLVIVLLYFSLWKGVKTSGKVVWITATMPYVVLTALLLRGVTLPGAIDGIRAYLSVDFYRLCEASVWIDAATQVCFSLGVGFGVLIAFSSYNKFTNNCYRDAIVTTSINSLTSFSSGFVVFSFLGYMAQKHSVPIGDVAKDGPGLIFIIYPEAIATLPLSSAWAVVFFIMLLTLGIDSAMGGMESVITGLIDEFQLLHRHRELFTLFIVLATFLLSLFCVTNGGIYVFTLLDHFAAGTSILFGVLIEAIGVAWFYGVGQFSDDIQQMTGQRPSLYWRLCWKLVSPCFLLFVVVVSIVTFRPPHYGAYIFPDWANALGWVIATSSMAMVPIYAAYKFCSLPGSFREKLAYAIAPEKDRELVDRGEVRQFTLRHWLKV
T2 sequence (P23975 whole entry): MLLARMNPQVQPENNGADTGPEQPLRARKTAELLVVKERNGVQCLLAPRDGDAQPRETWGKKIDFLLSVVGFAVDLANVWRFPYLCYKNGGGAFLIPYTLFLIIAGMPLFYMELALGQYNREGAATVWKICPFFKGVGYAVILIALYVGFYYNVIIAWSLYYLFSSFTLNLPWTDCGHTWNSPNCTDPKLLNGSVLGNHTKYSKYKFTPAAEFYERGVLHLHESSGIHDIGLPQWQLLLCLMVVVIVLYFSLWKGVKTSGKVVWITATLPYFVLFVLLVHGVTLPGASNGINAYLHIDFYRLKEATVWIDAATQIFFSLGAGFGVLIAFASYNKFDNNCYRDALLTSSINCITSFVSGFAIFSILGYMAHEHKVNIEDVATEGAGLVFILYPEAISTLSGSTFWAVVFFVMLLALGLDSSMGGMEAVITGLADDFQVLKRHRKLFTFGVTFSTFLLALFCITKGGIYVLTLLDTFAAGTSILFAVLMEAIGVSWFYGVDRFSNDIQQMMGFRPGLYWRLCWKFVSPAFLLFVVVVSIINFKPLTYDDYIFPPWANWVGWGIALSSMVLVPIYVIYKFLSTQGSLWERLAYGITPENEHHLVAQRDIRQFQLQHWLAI
T4 sequence (Q99720 whole entry): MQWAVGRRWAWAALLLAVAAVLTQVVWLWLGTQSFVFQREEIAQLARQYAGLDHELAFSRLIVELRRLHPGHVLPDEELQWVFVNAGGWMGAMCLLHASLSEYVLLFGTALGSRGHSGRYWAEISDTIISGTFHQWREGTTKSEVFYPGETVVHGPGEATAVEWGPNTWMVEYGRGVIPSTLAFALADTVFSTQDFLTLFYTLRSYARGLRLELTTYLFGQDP
T9 sequence (Q9H3N8 whole entry): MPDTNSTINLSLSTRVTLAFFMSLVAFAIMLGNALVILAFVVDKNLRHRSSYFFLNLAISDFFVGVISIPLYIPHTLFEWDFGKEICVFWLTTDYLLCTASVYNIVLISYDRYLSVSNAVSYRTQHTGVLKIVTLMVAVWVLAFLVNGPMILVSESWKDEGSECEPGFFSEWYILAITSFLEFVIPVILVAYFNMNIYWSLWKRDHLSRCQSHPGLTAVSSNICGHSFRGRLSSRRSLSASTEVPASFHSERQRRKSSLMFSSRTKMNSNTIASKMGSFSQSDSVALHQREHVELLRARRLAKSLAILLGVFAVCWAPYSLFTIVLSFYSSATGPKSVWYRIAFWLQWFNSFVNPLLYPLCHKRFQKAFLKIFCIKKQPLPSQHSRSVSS
T1 sequence (Q5BJF2 whole entry): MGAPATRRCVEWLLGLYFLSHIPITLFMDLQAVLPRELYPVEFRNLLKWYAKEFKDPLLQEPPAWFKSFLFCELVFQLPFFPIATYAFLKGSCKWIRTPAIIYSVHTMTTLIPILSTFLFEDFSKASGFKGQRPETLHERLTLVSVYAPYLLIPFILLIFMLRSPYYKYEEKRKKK
T5 sequence (P25021 whole entry): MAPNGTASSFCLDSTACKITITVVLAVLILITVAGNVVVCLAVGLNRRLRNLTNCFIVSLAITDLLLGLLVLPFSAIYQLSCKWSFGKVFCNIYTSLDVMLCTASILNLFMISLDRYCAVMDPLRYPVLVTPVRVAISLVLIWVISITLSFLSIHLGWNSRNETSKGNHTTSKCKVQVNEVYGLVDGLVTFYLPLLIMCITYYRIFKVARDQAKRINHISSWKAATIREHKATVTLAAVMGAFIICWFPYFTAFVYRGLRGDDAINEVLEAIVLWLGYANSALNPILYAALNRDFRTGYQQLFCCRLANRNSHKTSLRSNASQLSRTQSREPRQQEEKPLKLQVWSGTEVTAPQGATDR
T7 sequence (P28221 whole entry): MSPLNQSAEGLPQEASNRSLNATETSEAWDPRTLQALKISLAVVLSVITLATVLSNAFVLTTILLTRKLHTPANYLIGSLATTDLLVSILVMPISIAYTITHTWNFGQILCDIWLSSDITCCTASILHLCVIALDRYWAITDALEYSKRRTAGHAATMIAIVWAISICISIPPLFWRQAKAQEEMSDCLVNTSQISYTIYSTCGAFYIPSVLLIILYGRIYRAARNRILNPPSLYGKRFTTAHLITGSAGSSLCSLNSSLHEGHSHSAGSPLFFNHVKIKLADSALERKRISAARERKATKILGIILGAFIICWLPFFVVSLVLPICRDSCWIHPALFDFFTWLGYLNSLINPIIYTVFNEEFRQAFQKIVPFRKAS
T6 sequence (P14416 whole entry): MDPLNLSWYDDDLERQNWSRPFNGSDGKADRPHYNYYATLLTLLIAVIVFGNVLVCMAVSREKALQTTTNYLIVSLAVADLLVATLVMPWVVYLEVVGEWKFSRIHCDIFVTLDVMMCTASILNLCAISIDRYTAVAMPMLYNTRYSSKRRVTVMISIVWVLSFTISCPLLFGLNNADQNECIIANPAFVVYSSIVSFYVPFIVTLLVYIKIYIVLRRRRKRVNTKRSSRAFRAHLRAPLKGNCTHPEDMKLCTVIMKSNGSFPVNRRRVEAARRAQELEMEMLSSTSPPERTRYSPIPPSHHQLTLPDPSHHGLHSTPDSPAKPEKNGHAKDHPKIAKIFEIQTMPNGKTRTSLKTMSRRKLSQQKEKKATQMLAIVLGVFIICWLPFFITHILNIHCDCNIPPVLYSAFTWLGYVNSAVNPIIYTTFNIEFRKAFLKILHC
Sequence of D(4) dopamine receptor (Homo sapiens) (P21917 whole entry): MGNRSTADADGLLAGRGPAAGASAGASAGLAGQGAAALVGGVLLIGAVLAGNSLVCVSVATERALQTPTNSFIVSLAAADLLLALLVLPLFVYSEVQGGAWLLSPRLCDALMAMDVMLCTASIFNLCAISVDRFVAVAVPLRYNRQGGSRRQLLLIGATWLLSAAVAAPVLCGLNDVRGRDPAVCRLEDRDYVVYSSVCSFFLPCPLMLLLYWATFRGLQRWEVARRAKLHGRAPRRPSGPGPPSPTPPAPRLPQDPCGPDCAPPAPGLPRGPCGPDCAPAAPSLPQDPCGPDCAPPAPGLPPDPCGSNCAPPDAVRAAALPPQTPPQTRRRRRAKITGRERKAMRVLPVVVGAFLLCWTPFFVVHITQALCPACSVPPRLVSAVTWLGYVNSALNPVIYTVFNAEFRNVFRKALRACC
Sequence of D(3) dopamine receptor (Homo sapiens) (P35462 whole entry): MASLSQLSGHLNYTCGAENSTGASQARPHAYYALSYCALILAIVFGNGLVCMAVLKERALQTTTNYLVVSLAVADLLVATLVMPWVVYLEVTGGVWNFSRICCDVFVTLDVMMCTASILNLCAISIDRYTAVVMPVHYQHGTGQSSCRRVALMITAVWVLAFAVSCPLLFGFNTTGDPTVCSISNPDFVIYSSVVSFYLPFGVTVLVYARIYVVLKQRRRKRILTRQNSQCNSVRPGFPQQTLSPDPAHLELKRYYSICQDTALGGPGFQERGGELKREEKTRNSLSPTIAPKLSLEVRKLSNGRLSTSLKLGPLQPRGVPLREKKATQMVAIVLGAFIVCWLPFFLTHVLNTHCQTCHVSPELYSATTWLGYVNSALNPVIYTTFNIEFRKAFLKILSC
Sequence of Muscarinic acetylcholine receptor M3 (Homo sapiens) (P20309 whole entry, looked up): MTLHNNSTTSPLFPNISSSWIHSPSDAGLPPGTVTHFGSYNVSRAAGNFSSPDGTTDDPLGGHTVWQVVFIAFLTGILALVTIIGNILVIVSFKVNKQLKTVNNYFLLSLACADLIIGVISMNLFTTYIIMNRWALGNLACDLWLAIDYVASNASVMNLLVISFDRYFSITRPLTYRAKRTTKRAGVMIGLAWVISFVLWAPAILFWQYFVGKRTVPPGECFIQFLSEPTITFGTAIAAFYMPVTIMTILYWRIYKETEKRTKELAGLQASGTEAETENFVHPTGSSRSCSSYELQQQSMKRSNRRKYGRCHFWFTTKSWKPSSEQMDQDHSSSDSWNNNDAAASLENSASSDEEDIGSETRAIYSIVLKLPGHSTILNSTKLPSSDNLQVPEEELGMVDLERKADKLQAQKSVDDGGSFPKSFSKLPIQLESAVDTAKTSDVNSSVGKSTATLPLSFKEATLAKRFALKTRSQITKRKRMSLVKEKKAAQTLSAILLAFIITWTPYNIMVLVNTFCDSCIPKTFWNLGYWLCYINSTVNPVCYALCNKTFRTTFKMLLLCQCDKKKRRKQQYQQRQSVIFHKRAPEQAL
Sequence of Peptidyl-prolyl cis-trans isomerase FKBP2 (P26885 whole entry): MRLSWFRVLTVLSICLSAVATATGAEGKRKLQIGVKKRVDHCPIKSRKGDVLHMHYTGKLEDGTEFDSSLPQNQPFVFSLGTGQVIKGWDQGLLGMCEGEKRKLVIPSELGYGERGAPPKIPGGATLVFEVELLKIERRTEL

Compound: COc1ccc(CC[C@@H](OC(=O)[C@H]2CCCCN2C(=O)[C@@H](c2cc(OC)c(OC)c(OC)c2)C2CCCCC2)c2cccc(OCCN3CCOCC3)c2)cc1OC
- inhibition [1]: 98.4%
- inhibition [2]: 35.1%
- Ki [3]: > 10 µM
- pKi [3]: < 5
- inhibition [4]: 26.6%
- inhibition [5]: 9.71%
- inhibition [6]: -5.1%
- inhibition [7]: -3.87%
- inhibition [8]: 25.2%
- inhibition [9]: 30.2%
- inhibition [10]: 68.4%
- inhibition [11]: -0.58%
- inhibition [12]: 52.4%
- inhibition [13]: 4.34%
- inhibition [14]: 6.87%
- inhibition [15]: 58.1%
- Ki [16]: 2850 nM
- inhibition [17]: -1.68%
- inhibition [18]: -5.8%
- inhibition [19]: 12.6%
- Ki (Histamine H2 receptor [20]; read-out: Ki): 2960 nM
- Ki (Histamine H2 receptor [20]; read-out: pKi (converted)): 2690 nM
- inhibition [21]: 10.2%
- Ki ([22]; read-out: Ki): 2180 nM
- Ki ([22]; read-out: pKi (converted)): 2190 nM
- inhibition [23]: 0.13%
- inhibition [24]: 14.2%
- inhibition (D(2) dopamine receptor [25]): 14.7%
- inhibition [26]: 4.4%
- inhibition [27]: 4.82%
- inhibition [28]: 18%
- inhibition [29]: 12.2%
- Ki ([30]; read-out: Ki): 3.13 µM
- Ki ([30]; read-out: pKi (converted)): 3.09 µM
- inhibition [31]: 19.7%
- inhibition [32]: 4.39%
- inhibition (Histamine H2 receptor [33]): 50.7%
- Ki [34]: 409 nM
- inhibition [35]: 4.07%
- inhibition [36]: 20.6%
- inhibition [37]: 5.75%
- inhibition [38]: 19.4%
- inhibition [39]: 57%
- inhibition [40]: 28.1%
- inhibition (Histamine H4 receptor [41]): 49.5%
- inhibition [42]: -3.44%
- inhibition [43]: 19.1%

Compound: COc1ccc(CC[C@@H](OC(=O)[C@@H]2CCCCN2C(=O)[C@H](c2cc(OC)c(OC)c(OC)c2)C2CCCCC2)c2cccc(OCCN3CCOCC3)c2)cc1OC
- inhibition [1]: 84.9%
- inhibition [2]: 37.1%
- inhibition [44]: 14.5%
- inhibition [4]: 23.8%
- Kd [45]: > 50 µM (not active)
- inhibition [5]: 8.1%
- Ki (D(2) dopamine receptor [46]): > 10 µM
- inhibition [6]: 9.5%
- inhibition [7]: 3%
- inhibition [8]: 49.7%
- inhibition [9]: 0.6%
- inhibition [10]: 41%
- inhibition [11]: -6.5%
- inhibition [12]: 36.9%
- inhibition [13]: 20.9%
- Kd [47]: > 10 µM (not active)
- inhibition [14]: 25.9%
- Ki (Histamine H4 receptor [48]): 3.38 µM
- inhibition [15]: 49.4%
- inhibition [17]: 20.5%
- inhibition [18]: -1.1%
- inhibition [21]: 12.9%
- inhibition [23]: 7.6%
- inhibition [24]: 37.9%
- inhibition [49]: 7%
- Ki [50]: > 10 µM
- inhibition (D(2) dopamine receptor [25]): 50%
- Kd [51]: 1.05 µM (not active)
- inhibition [26]: 21.9%
- inhibition [27]: 7.5%
- inhibition [28]: 3.4%
- inhibition [29]: -0.3%
- inhibition [31]: 7.6%
- inhibition [52]: 56.1%
- inhibition [32]: 13.4%
- inhibition (Histamine H2 receptor [33]): 30.3%
- Ki [34]: 226 nM
- inhibition [35]: 9.2%
- inhibition [36]: -9.9%
- inhibition [37]: 5.9%
- inhibition [53]: 9.5%
- inhibition [38]: 8.5%
- inhibition [54]: 17.2%
- inhibition [39]: 15.5%
- inhibition [40]: 39.7%
- inhibition (Histamine H4 receptor [41]): 71.8%
- inhibition [55]: 6.7%
- inhibition [42]: 0.4%
- inhibition (Rattus norvegicus): 3.1%
- inhibition [43]: 24.3%
